Assay [1] in a line: Stain bleaching in laundry at ambient temperature (hydrogen peroxide), tomato stain. Details: key: CIE brightness Y difference: washed with catalyst minus without. The note with it: 10 mmol/l hydrogen peroxide; catalyst 25 μmol/l; IEC 60456* washing agent 7.5 g/l; 50 minutes at ambient temperature; brightness vs. absence of catalyst. As for the experimental part:
(§1) 1 g of a circular stain (BC01 Tea, CFT; WFK10.0 Carrot juice, WFK; CS20/2 Tomato, CFT; BC04 Curry, CFT) was added into a vial with 3 ml washing liquor. The liquor contained a standard washing agent (IEC 60456*) in a concentration of 7.5 g/l. The hydrogen peroxide concentration was 10 mmol/l. The catalyst concentration (1:1 in-situ complex of the ligand with manganese(II) chloride tetrahydrate or iron (ii) chloride in methanolic solution) was 25 μmol/l. The vial was shaken with a shaker for 50 minutes at ambient temperature. After the treatment the fabric was carefully rinsed and ironed. The brightness values Y according to the CIE standard procedure of the stained test fabrics were measured with a Gretag SPM 100 instrument prior to and after the treatment, respectively. The bleaching effect is given as ΔΔY, i.e. the difference between the brightness of the fabrics washed in presence and in the absence of a catalyst, respectively.

A short description of assay [2]: Stain bleaching in laundry at 40° C. The note with it: tea-stained cotton; 10 mmol/l hydrogen peroxide; catalyst 20 μmol/l; IEC 60456 A* detergent 7.5 g/l; LINITEST 30 minutes at 40° C.; relative to no catalyst. Also on record: key: CIE brightness increase of stain vs. reference run without catalyst. The method, then:
7.5 g of white cotton fabric and 2.5 g of tea-stained cotton fabric were treated in 80 ml of washing liquor. The liquor contained a standard detergent (IEC 60456 A*) in a concentration of 7.5 g/l. The hydrogen peroxide concentration was 10 mmol/l. The catalyst concentration (1:1 in-situ complex of the ligand with manganese(II) chloride tetrahydrate in methanolic solution) was 20 μmol/l. The washing process was carried out in a steel beaker in a LINITEST apparatus for 30 minutes at 40° C. To evaluate the bleaching results, the increase in brightness ΔΔY of the stains relative to reference experiments without the addition of catalyst (brightness according to CIE) was determined spectrophotometrically.

Assay [3] is described as follows: Stain bleaching in laundry at ambient temperature (hydrogen peroxide), curry stain. Particulars: 10 mmol/l hydrogen peroxide; catalyst 25 μmol/l; IEC 60456* washing agent 7.5 g/l; 50 minutes at ambient temperature; brightness vs. absence of catalyst. Also on record: key: CIE brightness Y difference: washed with catalyst minus without. As for the experimental part: as §1

A short description of assay [4]: Dishwashing: removal of tea deposit from tea-stained cups (IKW method). Also on record: key: visual scale 0 = unchanged, very strong deposit to 10 = no deposit. Particulars: visual scale 0 (very strong deposit) to 10 (no deposit); carbonate buffer pH 9.6, 44 mM hydrogen peroxide, 20 μM catalyst, 15 minutes; reference without catalyst 4.5. The method, then:
Tea-stained cups were prepared according to the IKW method (IKW-Arbeitskreis Maschinenspülmittel, “Methoden zur Bestimmung der Reinigungsleistung von maschinellen Geschirrspülmitteln (Part A and B)”, SÖFW, 11+14, 1998). Tea-stained cups were filled with a carbonate buffer solution (pH 9.6) containing 44 mM hydrogen peroxide and 20 μM catalyst (1:1 in-situ complex of the ligand with manganese(II) chloride tetrahydrate in methanolic solution). After 15 minutes the solution was removed, and the cups were rinsed with water. The removal of the tea deposit was evaluated visually on a scale from 0 (i.e. unchanged, very strong deposit) to 10 (i.e. no deposit).

A short description of assay [5]: Stain bleaching in laundry at ambient temperature (hydrogen peroxide), carrot juice stain. Also on record: key: CIE brightness Y difference: washed with catalyst minus without. Particulars: 10 mmol/l hydrogen peroxide; catalyst 25 μmol/l; IEC 60456* washing agent 7.5 g/l; 50 minutes at ambient temperature; brightness vs. absence of catalyst. As for the experimental part:
as §1

The nature of assay [6]: Stain bleaching in laundry at ambient temperature (hydrogen peroxide), tea stain. Particulars: 10 mmol/l hydrogen peroxide; catalyst 25 μmol/l; IEC 60456* washing agent 7.5 g/l; 50 minutes at ambient temperature; brightness vs. absence of catalyst. Also on record: key: CIE brightness Y difference: washed with catalyst minus without. The method, then: as §1
Assay [7] in a line: Stain bleaching in laundry with peracetic acid as oxidant, carrot juice stain. Particulars: peracetic acid 3 mmol/l; catalyst 10 μmol/l; IEC 60456* washing agent 7.5 g/l; 50 minutes at ambient temperature; vs. absence of catalyst. As for the experimental part:
as §1, with “CFT; WFK 0.0” for “CFT; WFK10.0”, “The peracetic acid” for “The hydrogen peroxide”, “was 3” for “was 10”, “was 10” for “was 25”, “presence vs.” for “presence and in”

Assay [8] is described as follows: Stain bleaching in laundry with peracetic acid as oxidant, tea stain. Particulars: peracetic acid 3 mmol/l; catalyst 10 μmol/l; IEC 60456* washing agent 7.5 g/l; 50 minutes at ambient temperature; vs. absence of catalyst. As for the experimental part: as §1, with “CFT; WFK 0.0” for “CFT; WFK10.0”, “The peracetic acid” for “The hydrogen peroxide”, “was 3” for “was 10”, “was 10” for “was 25”, “presence vs.” for “presence and in”

Assay [9] is described as follows: Stain bleaching in laundry with peracetic acid as oxidant, curry stain. Particulars: peracetic acid 3 mmol/l; catalyst 10 μmol/l; IEC 60456* washing agent 7.5 g/l; 50 minutes at ambient temperature; vs. absence of catalyst. The method, then: as §1, with “CFT; WFK 0.0” for “CFT; WFK10.0”, “The peracetic acid” for “The hydrogen peroxide”, “was 3” for “was 10”, “was 10” for “was 25”, “presence vs.” for “presence and in”

A short description of assay [10]: Stain bleaching in laundry with peracetic acid as oxidant, tomato stain. The note with it: peracetic acid 3 mmol/l; catalyst 10 μmol/l; IEC 60456* washing agent 7.5 g/l; 50 minutes at ambient temperature; vs. absence of catalyst. As for the experimental part:
as §1, with “CFT; WFK 0.0” for “CFT; WFK10.0”, “The peracetic acid” for “The hydrogen peroxide”, “was 3” for “was 10”, “was 10” for “was 25”, “presence vs.” for “presence and in”

Molecules are shown by their SMILES.

As for `CN(Cc1ccccn1)Cc1cc(O)cc(-c2ccccn2)n1` [Ligand 23-Mn, 6-[(methyl-pyridin-2-ylmethyl-amino)-methyl]-[2,2′]bipyridinyl-4-ol], the “ΔΔY (Tomato)” value in assay [1] is recorded as 0.6. This compound also returned a ΔΔY in assay [2] of 2.1. Also, the “ΔY Δ(Curry)” value in assay [3] is given as 7.4. In [4], the Rating turned out to be 6.0. In assay [5], the “ΔΔY (Carrot Juice)” value is given as 1.3. In assay [6], the “ΔΔY (Tea)” value came to 2.9.
With `CN(Cc1ccccn1)Cc1cc(O)cc(-c2cc(N3CCCC3)ccn2)n1` [Ligand 27-Mn, 6-[(methyl-pyridin-2-ylmethyl-amino)-methyl]-4′-pyrrolidin-1-yl-[2,2′]bipyridinyl-4-ol], the “ΔΔY (Tomato)” value in [1] is 4.7. The compound further came in with a ΔΔY in [2] of 2.7. For the same compound, in assay [3], the “ΔY Δ(Curry)” value was 8.2. Besides, in assay [4], the Rating was 6.7. For the same compound, the “ΔΔY (Carrot Juice)” value in assay [5] came out at 1.3. For the same compound, the “ΔΔY (Tea)” value in assay [6] is 5.3.
Take `CN1CCN(c2ccnc(-c3cc(O)cc(CN(C)Cc4ccccn4)n3)c2)CC1` [Ligand 29-Mn, 4′-(4-methyl-piperazin-1-yl)-6-[(methyl-pyridin-2-ylmethyl-amino)-methyl]-[2,2′]bipyridinyl-4-ol]: in assay [1], the “ΔΔY (Tomato)” value was 4.4. In assay [3], the “ΔY Δ(Curry)” value is 8.3. The compound further came in with a Rating in assay [4] of 6.1. In assay [5], the “ΔΔY (Carrot Juice)” value amounted to 3.1. For the same compound, in assay [6], the “ΔΔY (Tea)” value is reported as 6.4.
`CN1CCN(c2ccnc(-c3cc(O)cc(CN(C)Cc4ccccn4)n3)c2)CC1` [Ligand 29/Fe, 4′-(4-methyl-piperazin-1-yl)-6-[(methyl-pyridin-2-ylmethyl-amino)-methyl]-[2,2′]bipyridinyl-4-ol] displayed a ΔΔY in assay [2] of 5.0.
With `CN(Cc1ccccn1)Cc1cc(O)cc(-c2cc(N3CC[N+](C)(C)CC3)ccn2)n1.[I-]` [Ligand 30-Mn, 4-{4′-hydroxy-6′-[(methyl-pyridin-2-ylmethyl-amino)-methyl]-[2,2′]bipyridinyl-4-yl}-1,1-dimethyl-piperazin-1-ium iodide], the “ΔΔY (Tomato)” value in assay [1] was 7.4. Also, the ΔΔY in [2] is listed as 4.5. Moreover, the “ΔY Δ(Curry)” value in [3] was 7.1. The compound also gave a Rating in [4] of 7.8. The “ΔΔY (Carrot Juice)” value in assay [5] is 3.6. Besides, the “ΔΔY (Tea)” value in assay [6] was found to be 7.0.
Consider `CN(Cc1cc(N(C)C)ccn1)Cc1cc(O)cc(-c2cc(N3CCCC3)ccn2)n1` [Ligand 32-Mn, 6-{[(4-dimethylamino-pyridin-2-ylmethyl)-methyl-amino]-methyl}-4′-pyrrolidin-1-yl-[2,2′]bipyridinyl-4-ol], for which the “ΔΔY (Tomato)” value worked out at 5.6 in [1] and 1.2 in assay [10]. Moreover, the ΔΔY in [2] is recorded as 4.5. Also, the results for the “ΔΔY (Carrot Juice)” value in [7] and in [5] were 2.5 and 3.1, respectively. Besides, the “ΔY Δ(Curry)” value in assay [3] is on record as 8.5. Also, the “ΔΔY (Tea)” value was determined as 5.6 in assay [8] and 6.4 in [6]. Besides, in [4], the Rating came to 6.0. In addition, the “ΔΔY (Curry)” value in assay [9] stood at 5.3.
As for `CN(Cc1cc(N(C)C)ccn1)Cc1cc(O)cc(-c2cc(N(C)CCO)ccn2)n1` [Ligand 33-Mn, 6-{[(4-dimethylamino-pyridin-2-ylmethyl)-methyl-amino]-methyl}-4′-[(2-hydroxy-ethyl)-methyl-amino]-[2,2′]bipyridinyl-4-ol], the “ΔΔY (Tomato)” value in assay [1] was 6.0; in assay [10], 1.5. This compound had a ΔΔY in assay [2] of 3.9. Moreover, the results for the “ΔΔY (Carrot Juice)” value in assay [7] and in assay [5] were 3.4 and 3.9, respectively. Further, the “ΔY Δ(Curry)” value in assay [3] is listed as 9.1. The entries for the “ΔΔY (Tea)” value in assay [8] and in [6] were 6.1 and 5.5, respectively. Moreover, in assay [4], the Rating came to 7.1. The “ΔΔY (Curry)” value in [9] is recorded as 5.7.
Take `COc1c(C)cnc(CN(C)Cc2cc(O)cc(-c3cc(N4CCCC4)ccn3)n2)c1C` [Ligand 36-Mn, 6-{[(4-methoxy-3,5-dimethyl-pyridin-2-ylmethyl)-methyl-amino]-methyl}-4′-pyrrolidin-1-yl-[2,2′]bipyridinyl-4-ol]: the “ΔΔY (Tomato)” value in assay [1] was 4.9. The compound further returned a ΔΔY in assay [2] of 1.6. In [3], the “ΔY Δ(Curry)” value turned out to be 6.3. Moreover, the Rating in [4] is given as 6.9. In assay [5], the “ΔΔY (Carrot Juice)” value turned out to be 3.3. The “ΔΔY (Tea)” value in assay [6] amounted to 4.0.
Consider `CN(Cc1cc(N2CCCC2)ccn1)Cc1cc(O)cc(-c2cc(N3CCCC3)ccn2)n1` [Ligand 39-Mn, 6-{[methyl-(4-pyrrolidin-1-yl-pyridin-2-ylmethyl)-amino]-methyl}-4′-pyrrolidin-1-yl-[2,2′]bipyridinyl-4-ol], for which, in assay [1], the “ΔΔY (Tomato)” value was determined as 8.8. The ΔΔY in assay [2] is 4.0. In [3], the “ΔY Δ(Curry)” value turned out to be 7.9. In [4], this compound gave a Rating of 6.3. Moreover, the “ΔΔY (Carrot Juice)” value in assay [5] was 4.2. In addition, the “ΔΔY (Tea)” value in assay [6] was found to be 5.1.
For `CN(Cc1cc(N(C)C)ccn1)Cc1cc(O)cc(-c2cc(N(C)C)ccn2)n1` [Ligand 40a-Mn, 4′-dimethylamino-6-{[(4-dimethylamino-pyridin-2-ylmethyl)-methyl-amino]-methyl}-[2,2′]bipyridinyl-4-ol], the figures for the “ΔΔY (Tomato)” value in assay [1] and in assay [10] were 5.0 and 3.5, respectively. In assay [2], this compound registered a ΔΔY of 3.0. In addition, the “ΔΔY (Carrot Juice)” value turned out to be 1.6 in assay [7] and 5.0 in assay [5]. Further, the “ΔY Δ(Curry)” value in assay [3] came out at 3.0. In addition, the “ΔΔY (Tea)” value in assay [8] and in assay [6] was 7.0 in each case. In [4], the Rating is on record as 5.9. Further, the “ΔΔY (Curry)” value in [9] turned out to be 6.4.
Take `CN(Cc1cc(N(C)C)ccn1)Cc1cc(N(C)C)cc(-c2cc(N(C)C)ccn2)n1` [Ligand 40b-Mn]: in assay [1], the “ΔΔY (Tomato)” value is given as 2.3. Also, the ΔΔY in assay [2] stood at 1.0. Further, in [3], the “ΔY Δ(Curry)” value was 3.7. The Rating in assay [4] stood at 5.8. The “ΔΔY (Carrot Juice)” value in assay [5] was found to be 2.7. Besides, the “ΔΔY (Tea)” value in [6] is 1.7.
For `CN(Cc1cc(-n2cccc2)ccn1)Cc1cc(O)cc(-c2cc(N(C)C)ccn2)n1` [Ligand 40c-Mn, 4′-dimethylamino-6-{[methyl-(4-pyrrol-1-yl-pyridin-2-ylmethyl)-amino]-methyl}-[2,2′]bipyridinyl-4-ol], the “ΔΔY (Tomato)” value in assay [1] turned out to be 1.3. Also, in assay [2], the ΔΔY was 2.2. The “ΔY Δ(Curry)” value in assay [3] worked out at 4.9. The Rating in assay [4] is 6.8. The “ΔΔY (Carrot Juice)” value in assay [5] came to 2.5. In assay [6], the “ΔΔY (Tea)” value is on record as 3.9.

Values taken from patent US20090044345A1, “Use of Metal Complex Compounds as Oxidation Catalysts” (priority 2006, published 2009).
